Test results from patent publication US20250171430A1, “PYRAZOLYL COMPOUNDS AS KV7 CHANNEL ACTIVATORS” (Biohaven Therapeutics Ltd., priority 2022, published 2025).

Target: T1, Kv7.2/7.3 (Homo sapiens, UniProt O43525+O43526)
T1 construct: Kv7.2 tetracycline-induced, Kv7.3 constitutive
Test: Kv7.2/7.3 Activation Assay (Thallium Flux Assay)
Format: cell-based
Conditions: hKV7.2/7.3 cell line; test compound at single concentration of 10 μM; fluorescence at 90 sec normalized to positive control (retigabine, 30 μM)
Source text: The Thallium Flux Assay is used as a surrogate indicator of potassium channel activity.
The experimental protocol was adapted from the FluxOR™ II Green Potassium Ion Channel Assay User Guide (Pub. No. MAN0016084, Invitrogen). Conditions were optimized for the Kv7.2/7.3 cell line.
Cell Line: The hKV7.2/7.3 cell line was obtained from Chantest (cat. #CT6147).
Cell Culture: Kv7.2/7.3 cells were maintained in a media containing DMEM/F12; 50/50 (Fisher 11-330), 10% Fetal Bovine Serum (FBS) (Fisher 26-140), 100 units/mL Penicillin-Streptomycin (Fisher 15-140), 0.005 mg/ml Blasticidin (InvivoGen ant-bl-1), 0.5 mg/mL Geneticin (InvivoGen ant-gn-5), and 0.1 mg/mL Zeocin (Fisher R25001). One day prior to experimentation, cells were plated in 96 well clear bottom plates (Corning cat. #353219) in a media without Blasticidin, Geneticin, or Zeocin. In this cell line Kv7.3 channel expression is controlled by a constitutive promoter. Kv7.2 channel expression was induced by adding tetracycline (Sigma T7660) at a final concentration of 10 ng/mL overnight in a cell culture incubator at 37° C. and 5% CO2. On the day of assay, the cell culture medium in the 96-well plates was replaced by assay buffer containing the thallium-sensitive fluorescent sensor, FluxOR II Green prepared according to manufacturer's instructions. The 96-well plates were then incubated for 1 h at 37° C. Following the incubation, the FluxOR II Green-containing solution was replaced with extracellular solution.
Test Compound Plates: The test compound is diluted in a mixture of 0.1% DMSO/extracellular solution at a single concentration of 10 μM. Dilutions were made on a Biomek NXP (BECKMAN COULTER). Extracellular solution contained (in mM: 145 NaCl, 4 KCl, 2 CaCl2), 1 MgCl2, 10 HEPES, and 10 Glucose, pH 7.4).
Measurement and data analysis: Thallium-flux-mediated changes in intracellular fluorescence were made using a plate reader (Enspire, Perkin Elmer) set with an excitation wavelength of 475 nm and an emission wavelength of 530 nm. After a 15 sec baseline measurement, the stimulus buffer containing thallium and potassium was added to the 96-well plate containing FluxOR II Green-loaded cells and test compounds. Fluorescence values at 90 sec were normalized to the positive control (retigabine, 30 μM) and test compound activities were assigned categories according to the formula: “No Activity <0.15, “+” Moderate Activity 0.15-0.7, and “++” High Activity >0.7.

| SMILES | Kv7.2/7.3 Activity |
| --- | --- |
| Cc1c(C2CCC2)c(NC(=O)Cc2cc(F)cc(F)c2)nn1C [Compound 1, N-(4-cyclobutyl-1,5-dimethyl-1H-pyrazol-3-yl)-2-(3,5-difluorophenyl)acetamide] | + (“+” Moderate Activity 0.15-0.7) |
| CCn1nc(NC(=O)CC(C(F)(F)F)C(F)(F)F)c(C2CC2)c1C [Compound 2, N-(4-cyclopropyl-1-ethyl-5-methyl-1H-pyrazol-3-yl)-4,4,4-trifluoro-3-(trifluoromethyl)butanamide] | + (“+” Moderate Activity 0.15-0.7) |
| CCn1nc(NC(=O)Cc2cc(F)cc(F)c2)c(C2CC2)c1C [Compound 3, N-(4-cyclopropyl-1-ethyl-5-methyl-1H-pyrazol-3-yl)-2-(3,5-difluorophenyl)acetamide] | ++ (“++” High Activity ≥ 0.7) |
| CCn1nc(NC(=O)CC(C)(C)O)c(C2CC2)c1C [Compound 4, N-(4-cyclopropyl-1-ethyl-5-methyl-1H-pyrazol-3-yl)-3-hydroxy-3-methylbutanamide] | − (“−” No Activity < 0.15) |
| CCn1nc(NC(=O)CC(C)C)c(C2CC2)c1C [Compound 5, N-(4-cyclopropyl-1-ethyl-5-methyl-1H-pyrazol-3-yl)-3-methylbutanamide] | − (“−” No Activity < 0.15) |
| CCOC(=O)Nc1nn(CC)c(C)c1C1CC1 [Compound 6, ethyl (4-cyclopropyl-1-ethyl-5-methyl-1H-pyrazol-3-yl)carbamate] | − (“−” No Activity < 0.15) |
| CCn1nc(NC(=O)CC(C)(C)C)c(C2CC2)c1C [Compound 7, N-(4-cyclopropyl-1-ethyl-5-methyl-1H-pyrazol-3-yl)-3,3-dimethylbutanamide] | + (“+” Moderate Activity 0.15-0.7) |
| CCn1nc(NC(=O)Cc2ccccc2C(F)(F)F)c(C2CC2)c1C [Compound 8, N-(4-cyclopropyl-1-ethyl-5-methyl-1H-pyrazol-3-yl)-2-(2-(trifluoromethyl)phenyl)acetamide] | + (“+” Moderate Activity 0.15-0.7) |
| CCn1nc(NC(=O)Cc2cc(Cl)ccc2Cl)c(C2CC2)c1C [Compound 9, N-(4-cyclopropyl-1-ethyl-5-methyl-1H-pyrazol-3-yl)-2-(2,5-dichlorophenyl)acetamide] | + (“+” Moderate Activity 0.15-0.7) |
| CCn1nc(NC(=O)[C@H]2CC2(C)C)c(C2CC2)c1C [Compound 10, (S)-N-(4-cyclopropyl-1-ethyl-5-methyl-1H-pyrazol-3-yl)-2,2-dimethylcyclopropane-1-carboxamide] | + (“+” Moderate Activity 0.15-0.7) |
| CCn1nc(NC(=O)c2ccc(F)c(F)c2)c(C2CC2)c1C [Compound 11, N-(4-cyclopropyl-1-ethyl-5-methyl-1H-pyrazol-3-yl)-3,4-difluorobenzamide] | − (“−” No Activity < 0.15) |
| Cn1nc(NC(=O)CC2(C(F)(F)F)CC2)c(C2CCC2)c1-c1ccccc1 [Compound 12, N-(4-cyclobutyl-1-methyl-5-phenyl-1H-pyrazol-3-yl)-2-(1-(trifluoromethyl)cyclopropyl)acetamide] | ++ (“++” High Activity ≥ 0.7) |
| Cn1nc(NC(=O)CC(C)(C)C(F)(F)F)c(C2CCC2)c1-c1ccccc1 [Compound 13, N-(4-cyclobutyl-1-methyl-5-phenyl-1H-pyrazol-3-yl)-4,4,4-trifluoro-3,3-dimethylbutanamide] | ++ (“++” High Activity ≥ 0.7) |
| Cn1nc(NC(=O)C[C@@H]2CC(F)(F)C2(F)F)c(C2CCC2)c1-c1ccc(F)cc1 [Compound 14, (R)-N-(4-cyclobutyl-5-(4-fluorophenyl)-1-methyl-1H-pyrazol-3-yl)-2-(2,2,3,3-tetrafluorocyclobutyl)acetamide] | ++ (“++” High Activity ≥ 0.7) |
| Cn1nc(NC(=O)C[C@@H]2CC(F)(F)C2(F)F)c(C2CCC2)c1Cc1ccccc1 [Compound 15, (R)-N-(5-benzyl-4-cyclobutyl-1-methyl-1H-pyrazol-3-yl)-2-(2,2,3,3-tetrafluorocyclobutyl)acetamide] | ++ (“++” High Activity ≥ 0.7) |
| Cn1nc(NC(=O)C[C@H]2CC(F)(F)C2(F)F)c(C2CCC2)c1Cc1ccccc1 [Compound 16, (S)-N-(5-benzyl-4-cyclobutyl-1-methyl-1H-pyrazol-3-yl)-2-(2,2,3,3-tetrafluorocyclobutyl)acetamide] | ++ (“++” High Activity ≥ 0.7) |
| Cn1nc(NC(=O)CC2(C(F)(F)F)CC2)c(C2CCC2)c1Cc1ccccc1 [Compound 17, N-(5-benzyl-4-cyclobutyl-1-methyl-1H-pyrazol-3-yl)-2-(1-(trifluoromethyl)cyclopropyl)acetamide] | ++ (“++” High Activity ≥ 0.7) |
| Cn1nc(NC(=O)C[C@@H]2CC(F)(F)C2(F)F)c(C2CCC2)c1-c1noc2ccccc12 [Compound 18, (R)-N-(5-(benzo[d]isoxazol-3-yl)-4-cyclobutyl-1-methyl-1H-pyrazol-3-yl)-2-(2,2,3,3-tetrafluorocyclobutyl)acetamide] | ++ (“++” High Activity ≥ 0.7) |
| Cn1nc(NC(=O)C[C@H]2CC(F)(F)C2(F)F)c(C2CCC2)c1-c1noc2ccccc12 [Compound 19, (S)-N-(5-(benzo[d]isoxazol-3-yl)-4-cyclobutyl-1-methyl-1H-pyrazol-3-yl)-2-(2,2,3,3-tetrafluorocyclobutyl)acetamide] | ++ (“++” High Activity ≥ 0.7) |
| Cc1c(NC(=O)CC(C)(C)C(F)(F)F)nn(C)c1-c1ccc(F)cc1 [Compound 20, 4,4,4-trifluoro-N-(5-(4-fluorophenyl)-1,4-dimethyl-1H-pyrazol-3-yl)-3,3-dimethylbutanamide] | ++ (“++” High Activity ≥ 0.7) |
| Cn1nc(NC(=O)C[C@H]2CC(F)(F)C2(F)F)c(C2CCC2)c1-c1ccc(F)cc1 [Compound 21, (S)-N-(4-cyclobutyl-5-(4-fluorophenyl)-1-methyl-1H-pyrazol-3-yl)-2-(2,2,3,3-tetrafluorocyclobutyl)acetamide] | ++ (“++” High Activity ≥ 0.7) |
| CC(C)c1c(NC(=O)CC(C)(C)C)nn(C)c1-c1ccc(F)cc1 [Compound 22, N-(5-(4-fluorophenyl)-4-isopropyl-1-methyl-1H-pyrazol-3-yl)-3,3-dimethylbutanamide] | ++ (“++” High Activity ≥ 0.7) |
| CC(C)c1c(NC(=O)CC(C)(C)C)nn(C)c1-c1ccc(OC(F)(F)F)cc1 [Compound 23, N-(4-isopropyl-1-methyl-5-(4-(trifluoromethoxy)phenyl)-1H-pyrazol-3-yl)-3,3-dimethylbutanamide] | ++ (“++” High Activity ≥ 0.7) |
| CC(C)c1c(NC(=O)C[C@@H]2CC(F)(F)C2(F)F)nn(C)c1-c1ccc(OC(F)(F)F)cc1 [Compound 24, (R)-N-(4-isopropyl-1-methyl-5-(4-(trifluoromethoxy)phenyl)-1H-pyrazol-3-yl)-2-(2,2,3,3-tetrafluorocyclobutyl)acetamide] | ++ (“++” High Activity ≥ 0.7) |
| CC(C)c1c(NC(=O)C[C@H]2CC(F)(F)C2(F)F)nn(C)c1-c1ccc(OC(F)(F)F)cc1 [Compound 25, (S)-N-(4-isopropyl-1-methyl-5-(4-(trifluoromethoxy)phenyl)-1H-pyrazol-3-yl)-2-(2,2,3,3-tetrafluorocyclobutyl)acetamide] | ++ (“++” High Activity ≥ 0.7) |
| CC(C)c1c(NC(=O)CC2(C(F)(F)F)CC2)nn(C)c1-c1ccc(OC(F)(F)F)cc1 [Compound 26, N-(4-isopropyl-1-methyl-5-(4-(trifluoromethoxy)phenyl)-1H-pyrazol-3-yl)-2-(1-(trifluoromethyl)cyclopropyl)acetamide] | ++ (“++” High Activity ≥ 0.7) |
| Cn1nc(NC(=O)CC(C)(C)C)c(C2CCC2)c1-c1ccc(C(C)(C)O)cc1 [Compound 29, N-(4-cyclobutyl-5-(4-(2-hydroxypropan-2-yl)phenyl)-1-methyl-1H-pyrazol-3-yl)-3,3-dimethylbutanamide] | − (“−” No Activity < 0.15) |
| Cn1nc(NC(=O)C[C@@H]2CC(F)(F)C2(F)F)c(C2CCC2)c1-c1ccc(OC(F)(F)F)cc1 [Compound 30, (R)-N-(4-cyclobutyl-1-methyl-5-(4-(trifluoromethoxy)phenyl)-1H-pyrazol-3-yl)-2-(2,2,3,3-tetrafluorocyclobutyl)acetamide] | ++ (“++” High Activity ≥ 0.7) |
